In US10406217B2, “Antifugetactic agents for the treatment of cancers” (The General Hospital Corporation, priority 2004, dated 2019):
Like-named read-outs stand apart in the source and are kept apart here. Blank lines part the entries; values can stand above or below the compound they belong to.

Assays:
CXCR4 [1] = biological target: T1, CXCR4 (Mus musculus, UniProt P70658); conditions: T-cells pre-incubated with 5 μg/ml AMD3100 for 30 min; 15 hours incubation
Protocol: The CXCR4 receptor was blocked by pre-incubation of T-cells with 5 μg/ml AMD3100 (Sigma, St. Louis, Mo.) for 30 min at 37° C. as previously described (70). Trajectories of migration were determined for randomly selected T-cells using Metamorph software. Cell path tracking and mean chemotropic indices (MCI) as a measurement of directionality of movement towards or away from β-TC3 cells were calculated using MetaMorph and MatLab software as previously described where an MCI of +0.1 to −0.1 indicates chemokinesis, >+0.1 indicates chemotaxis and <−0.1 indicates fugetaxis (Moghe, P. V., et al. 1995 J Immunol Methods 180, 193-211; McCutcheon, M. (1946) Physiological Reviews 26, 319).

CXCR4 [2] = biological target: T1, CXCR4; conditions: 48 hours
Protocol: (§1) In some experiments, activated OT-I CD8+ T cells were also preincubated with the CXCR4 antagonist, AMD3100, at concentrations of 0.08 and 0.25 μg/ml (15 min at RT) in a 12-well plate at a density of 1×10^7 cells/well prior to adoptive transfer (Hatse, S., et al. 2002, FEBS Lett 527:255). Survival analysis was evaluated in mice after in vivo generation of a tumor-specific memory T cell compartment (Bathe, O. F., et al. 2001, J Immunol 167:4511). 21 days after adoptive transfer of 1×10^7 OT-I CD8+ T cells (in 500 μl of HBSS via tail vein injection), two groups of mice (4 or 6 per group) were challenged s.c. in the right flank with 2×10^5 B 16/OVA.SDF-1-high cells or B16/OVA.MSCV control cells in 200 μl of HBSS using a 27 G needle (Bathe, O. F., et al. 2001, J Immunol 167:4511). […] Detectable tumor was considered to be >5 mm^2. Mice were sacrificed when tumors reached 400 mm^2 in size.
Immunized mice and mice that received adoptive transfer of OT-I CD8+ T-cells were evaluated for T cell infiltration of tumors by immunohistochemistry. Animals were sacrificed and tumors excised with preservation of the capsule. Resected tumors were fixed in 10% neutral buffered formalin and embedded in paraffin. Serial 5 μm sections of tumors were stained with H & E or with polyclonal anti-CD3 Ab or isotype control Ab, followed by incubation with secondary HRP-labeled anti-rabbit Dako EnVision Ab (DakoCytomation). T-cell infiltration was quantified by counting four random 200× field powers of the turner sections, each […] in area.

CXCR4 [3] = biological target: T1, CXCR4; conditions: OT-I preincubated with AMD3100 5 μg/ml; flat-bottom wells; SIINFEKL-pulsed targets; ±SEM
Protocol: Cytotoxicity of OT-I CD8+ cells was measured in a standard ^51Cr-release assay in round-bottom, wells as previously described (Brainard, D. M, et al. 2004. J Virol 78:5184-5193). The assay was also modified and performed in flat-bottom wells in order to determine the effects of CTL migration on killing efficacy in the context of target cells expressing SDF-1 (Hahne, M., et al. 1996 Science 274:1363-1366). B16/OVA.MSCV or B16/OVA.SDF1-high target cells were labeled with 100 μCi of ^51CR per 10^6 cells for 1 hour at 37° C. […] 30 μl of supernatant were harvested, and the radioactivity was counted in a γ-radiation counter. Cytotoxicity was expressed either as percent of lysis or as Lytic Unit 30 (LU30) as previously described (Brainard, D. M., et al. 2004. J Virol 78:5184-5193, Bryant, J., et al. 1992. J Immunol Meth 146:91-103). ^51Cr release assays were also performed in flat-bottom cells after preincubation of OT-I CD8+ T cells with the CXCR4 antagonist AMD3100 at concentrations of 0.25 and 1 μg/ml (Hatse, S. 2002 FEBS LETT 527:255-262).

CXCR4 [4] = biological target: T1, CXCR4; conditions: Matthys et al. 2001; cited from earlier work
CXCR4 [5] = biological target: T1, CXCR4; conditions: B16/OVA.MSCV vs B16/OVA.SDF-1-high tumor, OT-I T-cells incubated with AMD3100 0.08 and 0.25 μg/ml before adoptive transfer, MRI 24 hours, mean±SD, n=3
Protocol: as §1

B16/OVA.MSCV tumors = conditions: naïve mice, AMD3100 1.25 mg/kg s.c. twice a day from first day after challenge, average±SD
Protocol: (§2) For in vitro growth, 5×10^5 tumor cells were seeded in T25 flasks (Becton Dickinson, Le Pont De Claix, France). Cultures were harvested daily for 3 consecutive days and viable cell yield determined. Tumorigenicity was determined by subcutaneous (s.c.) injection of 2×10^5 viable cells into the flank of mice in a total volume of 200 μl PBS using a 27 G needle. Tumor growth was also evaluated in naïve mice challenged with B16/OVA.MSCV or B16/OVA.SDF-1-high cells and injected twice a day s.c. with the CXCR4 antagonist. AMDS3100 (1.25 mg/kg s.c., Sigma). Tumor growth was measured every three or four days using a caliper. Tumor volume was recorded as the product of two orthogonal diameters (axb; a=longest diameter; b-orthogonal width) (Hanson, J. L., et al. 2000 Immunity 13:265-276). In immunization studies, mice were injected s.c. (at multiple sites) with 1×10^5 Irradiated (8568 cGy) B16/OVA.pc cells in a volume of 200 μl at d 0 and d 10. Fourteen days after immunization, mice were challenged s.c. in both flanks with 2×10^5 B16/OVA.MSCV B16/OVA.SDF-1 high cells, and tumor growth was measured as described above (Dranoff, G., et al. 1993 Proc Natl Acad Sci USA 90:3539-3543). In some experiments, mice were immunized with B16/OVA.SDF-1-high cells and then challenged with B16/OVA.SDF-1-high or B16/OVA.SDF-1-low cells. Mice were sacrificed when one or both tumors reached 200 mm^2 in volume.

[6] = system: B16/OVA.SDF-1-high tumors; conditions: naïve mice, AMD3100 1.25 mg/kg s.c. twice a day, average±SD
Protocol: as §2

CXCR4 [7] = biological target: T1, CXCR4
Description: Pregnant females at day 15.5 of gestation were sacrificed by CO2 asphyxiation, and embryos were chilled on ice. Fetal thymuses were carefully removed under a dissecting microscope, taking care to keep the anatomically identifiable lobes joined together. Thymuses were placed in HBSS and kept on ice. Individual thymuses were gently transferred onto the surface of a polycarbonate membrane of a 6.5 mm transwell insert with a 3.3 μm pore size (Corning Incorporated Life Sciences Action, Mass.). DMEM (360 μl) supplemented with 2 mM glutamine, 100 U/ml penicillin, 100 μg/ml streptomycin, 2×10^5 M 2-mercaptoethanol, 0.1 mM non-essential amino acids, 10% HEPES, and 10% FBS (Sigma) was added to the lower chamber of the transwell. This amount of medium allowed the thymus to be at the interface of medium and air. The cultures were incubated at 37° C., in 5% CO2, and medium was replaced every 3 days. Thymic emigrants, were collected from each thymus by transferring each transwell insert containing one thymus onto to a new well 24 hours before harvesting emigrant present in the lower chamber for analysis. On the day of analysis, two thymuses were harvested, and emigrants were pooled from at least 4 thymic lobes from CXCR4^+/− CXCR4^−/− mice. For each time-point, CXCR4^+/− and CXCR4^−/− thymuses from one or two pregnant females bred at the same time were analyzed, aiming to minimize differences in the stage of maturation and total cell recovery. E15.5 WT (CXCR4^+/+) thymuses were obtained from fetuses from C57BL/16 mice breedings. […] FTOC from DPC 15.5 CXCR4+/− or CXCR4−/−embryos were also prepared as above, and AMD3100 (0.5 or 1 gg/ml; Sigma) was added to the lower chamber of day 14 FTOC.
Thymic lobes were harvested and transferred to a 4-ml round bottom polystyrene tube containing 0.4 mg/ml collagenase (from Clostridium histolyticum, type V, clostridiopeptidase A, SIGMA Chemicals), 10% FBS, EDTA0.2 mg/ml and 0.2 M phosphate. After 30 minutes incubation at 37° C., thymuses were disaggregated by gentle pipetting until no visible fragments remained. Cell suspensions were washed once in HBSS and 10% FBS to prevent further enzyme action. Cells were resuspended in PBS containing 0.1% bovine serum albumin and counted using a hemocytometer. After incubation for 30 minutes on ice with 0.5 gg of 2.4G2 antibody to block Fc binding, direct staining for three or four color analysis was performed. Cell suspensions were incubated for 15 minutes at 4° C. and then washed twice with staining buffer and analyzed using a FACSCalibur (BD Biosciences). Data analysis was performed with FlowJo software (Tree Star, Inc. Ashland, Oreg.). […] For annexin V and PI staining, an Annexin V-FITC Apoptosis Detection Kit I was used (BD Pharmingen). […] Mean log fluorescence intensity (MFI) values were obtained by subtracting the MFI of the isotype control from the MFI of the positively stained sample. To evaluate whether the differences between the peaks of cells were statistically significant with respect to controls, the Kolmogorov-Smirnov test for analysis of histograms was used.

Protein Kinase C = assay: Microfluidic migration assay of neutrophils in linear IL-8 gradients (mean chemotropism index); format: cell-based, Human; conditions: 25 μM pretreatment; IL-8 gradient in which fugetaxis is predominant (600 nM to 1.2 μM); p=0.0001
Description: Human whole blood was obtained from healthy volunteers by venipuncture into tubes-containing sodium heparin (Becton Dickinson, San Jose, Calif.). Neutrophils were isolated by density gradient centrifugation and purified by hypotonic lysis, as previously described (Tager, A. M., et al. 1998. Am J Respir Cell Mol Biol 19:643-52).
The microfluidic linear gradient generators were fabricated in poly(dimethylsiloxane) (PMDS; Sylgard 184, Dow Corning, N.Y.), and gradient generation was verified with fluorescin isothiocyanate (FITC; Sigma-Aldrich), as previously described (Li Jeon, N., et al. 2002. Nat Biotechnol 20:826-30; Whitesides, G. M., et al. 2001. Annu Rev Biomed Eng 3:335-73), […]
Cell movement was tracked using MetaMorph 4.5 (Universal Imaging, Dowington, Pa.) object tracking application, which generated tables of Cartesian coordinate data for each cell. Tracking data was analyzed in Excel (Microsoft, USA) and MATLAB 13 (The Mathworks, Inc., Newton, Mass.) to determine angular frequencies, mean squared displacements, migration velocities, persistence times, random motility coefficients, and random walk path lengths. […] For each cell, the squared displacement R(t) was calculated at time interval t, R^2(t)=(x(t0+t)−x(t0))^2+(y(t0+t)−y(t0))^2, (1) where t0 is the time at the origin. […]

[8] = system: Primary human neutrophils; assay: Calcium flux in neutrophils in response to IL-8 (Fura-2); format: cell-based; conditions: calibrated against 5 μM ionomycin
Protocol: (§3) Calcium flux in neutrophils in response to IL-8 was measured as previously described (Mahon M. J., et al. 2004 J Biol Chem 279:23550-8). Briefly, isolated cells (˜10^7/ml) were transferred into a balanced salt solution (127 mM NaCl, 3.8 mM KCl, 1.2 mM KH2PO4, 1.2 mM CaCl2, 0.9 mM MgCl2, 5 mM glucose, and 10 mM HEPES, pH 7.4), incubated for 45 min at room temperature with 1.25 μM Fura-2 acetoxymethyl ester (Molecular Probes, Eugene, Oreg.), washed with the balanced salt solution, and unloaded for 15 min at room temperature. […] Calcium flux in response to indicated concentrations of IL-8 (Akahoshi T., et al. 1994 Lymphokine Cytokine Res 13:113-6) was measured by fluorescence of cells excited at 340 and 380 nm using a PTI Deltascan dual-wavelength fluorimeter (Photon Technologies Incorporated, Lawrenceville, N.J.), observed through a Nikon Diaphot 200 microscope (Melville, N.Y.) and Sensys charge-coupled device camera (Photometrics, Ltd., Tucson, Ariz.), and analyzed using the Poenie-Tsien ratio with Imagemaster 2 software (Photon Technologies Incorporated). Signaling responses to IL-8 at designated concentrations were calibrated against maximal calcium flux as determined by treatment with 5 μM ionomycin (Sigma). CXCR2 expression on neutrophils pre- and post-exposure to 120 nM, 1.2 μM and 2.4 μM IL-8 was determined using PE-labelled anti-CXCR2 IgGl antibody (R & D systems). […]

CXCR2 = CXCR2 staining of neutrophils following IL-8 exposure; format: cell-based, Human; conditions: single pulse of IL-8 at 12 nM, 120 nM, 1.2 μM and 2.4 μM; data not shown
Protocol: as §3

[9] = OT-I CD8+ T-cells incubated with 0.08 μg/ml AMD3100 before adoptive transfer
[10] = OT-I CD8+ T-cells incubated with 0.25 μg/ml AMD3100 before adoptive transfer

T1 sequence (P70658 whole entry): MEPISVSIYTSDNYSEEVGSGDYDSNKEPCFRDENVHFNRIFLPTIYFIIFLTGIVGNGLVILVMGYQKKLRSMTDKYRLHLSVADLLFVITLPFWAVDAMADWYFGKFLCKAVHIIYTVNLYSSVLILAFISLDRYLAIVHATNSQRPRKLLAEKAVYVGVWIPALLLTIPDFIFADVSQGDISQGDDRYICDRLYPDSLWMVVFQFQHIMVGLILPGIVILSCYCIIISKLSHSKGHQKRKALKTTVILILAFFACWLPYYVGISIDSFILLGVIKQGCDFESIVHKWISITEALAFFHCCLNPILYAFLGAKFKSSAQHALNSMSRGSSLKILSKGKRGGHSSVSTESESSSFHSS

CD3+ T-cell infiltration into B16/OVA.SDF-1-high tumors (CXCR4 [2]; [9]): 101±10.6 cells/mm^2
number of T-cells infiltrating B16/OVA.MSCV tumors (CXCR4 [2]; [9]): 109±3.2 cells/mm^2
CD3+ T-cell infiltration into B16/OVA.SDF-1-high tumors (CXCR4 [2]; [10]): 88.1±16.9 cells/mm^2
number of T-cells infiltrating B16/OVA.MSCV tumors (CXCR4 [2]; [10]): 93±14.8 cells/mm^2
ratio of T2 fit value in the right and left tumors (CXCR4 [5]): 1+0.12
ratio of T2 fit value in the right and left tumors (CXCR4 [5]; listed as AM3100): 0.55±0.13
total number of cells in the thymus (CXCR4 [7]; day 14 FTOC incubated 24 hours with 1 μg/ml AMD3100): 349±99.5 ×10^3/lobe
SP CD4 thymocytes emigrating from thymus (CXCR4 [7]; day 14 FTOC, 24 hours with 1 μg/ml AMD3100, mean±SEM): 1.1±0.15 ×10^3/love
CD62L expression by SP CD8 thymocytes (CXCR4 [7]; day 14 FTOC, 24 hours with 1 μg/ml AMD3100, p=0.56): not affected
total number of SP CD8 emigrants vs untreated FTOC (CXCR4 [7]; day 14 FTOC, 24 hours with 1 μg/ml AMD3100, p=0.93): did not differ
Compound: c1cc(CN2CCCNCCNCCCNCC2)ccc1CN1CCCNCCNCCCNCC1 [AMD3100]
T-cell migration away from SDF-1 secreting MSCV.SDF-1 bright cells (CXCR4 [1]): failed to migrate away from SDF-1 secreting cells
LU30, killing of B16/OVA.SDF-1-high cells by OT-I CD8+ T-cells (CXCR4 [3]): 77×10^6±15
intracellular Ca+ flux and chemotactic responses of murine splenocytes to SDF1 (CXCR4 [4]): inhibit
average time to tumor growth to a size of 200 mm^2 (B16/OVA.MSCV tumors): 22 ± 2 days
time for tumor growth to 200 mm^2 [6]: 23.6 ± 2.08 days
CD62L^high CD4 SP cells in the thymus vs untreated (CXCR4 [7]; day 14 FTOC, 24 hours with 1 μg/ml AMD3100, p=0.017): retention of CD62L^high CD4 SP cells in the thymus

Compound: CN(C)CCCn1cc(C2=C(c3c[nH]c4ccccc34)C(=O)NC2=O)c2ccccc21 [GF 109230X]
effect on neutrophil fugetaxis in IL-8 gradient (Protein Kinase C): selectively inhibited fugetaxis and converted a fugetactic response into a predominantly chemoattraction response

Compound: IL-8: human Interleukin-8 (72 amino acids; PeproTech), chemokine
Peak calcium flux response (percentage of maximal calcium flux) ([8]; 120 nM IL-8): 48%+/−5.1
Peak calcium flux response (percentage of maximal calcium flux) ([8]; 1.20 μM IL-8): 83%+/−7.9
reduction of CXCR2 mean fluorescent intensity from baseline (CXCR2): 2- to 3 fold
